According to US6685617B1, “Inhibitors of α4β1 mediated cell adhesion” (Pharmacia & Upjohn Company, priority 1998, dated 2004):
Structures can show the parent of a compound that is named as a salt.

Assays:
[1] = target: T1, α4β1 integrin (Jurkat T-cell adhesion to IL-1 stimulated endothelial cell monolayers) (Homo sapiens, UniProt P05556+P13612); experiment: Jurkat-endothelial cell adhesion assay (Jurkat EC); type: cell-based; conditions: Jurkat cells on IL-1 stimulated human umbilical vein endothelial cells; read-out: JK/EC (Jurkat EC Assay IC50 value range)
T1 construct: a T-cell line, Jurkat, known to express the α4β1 integrin; host or cells: Jurkat T-cell line
T1 sequence (P13612 34-1032): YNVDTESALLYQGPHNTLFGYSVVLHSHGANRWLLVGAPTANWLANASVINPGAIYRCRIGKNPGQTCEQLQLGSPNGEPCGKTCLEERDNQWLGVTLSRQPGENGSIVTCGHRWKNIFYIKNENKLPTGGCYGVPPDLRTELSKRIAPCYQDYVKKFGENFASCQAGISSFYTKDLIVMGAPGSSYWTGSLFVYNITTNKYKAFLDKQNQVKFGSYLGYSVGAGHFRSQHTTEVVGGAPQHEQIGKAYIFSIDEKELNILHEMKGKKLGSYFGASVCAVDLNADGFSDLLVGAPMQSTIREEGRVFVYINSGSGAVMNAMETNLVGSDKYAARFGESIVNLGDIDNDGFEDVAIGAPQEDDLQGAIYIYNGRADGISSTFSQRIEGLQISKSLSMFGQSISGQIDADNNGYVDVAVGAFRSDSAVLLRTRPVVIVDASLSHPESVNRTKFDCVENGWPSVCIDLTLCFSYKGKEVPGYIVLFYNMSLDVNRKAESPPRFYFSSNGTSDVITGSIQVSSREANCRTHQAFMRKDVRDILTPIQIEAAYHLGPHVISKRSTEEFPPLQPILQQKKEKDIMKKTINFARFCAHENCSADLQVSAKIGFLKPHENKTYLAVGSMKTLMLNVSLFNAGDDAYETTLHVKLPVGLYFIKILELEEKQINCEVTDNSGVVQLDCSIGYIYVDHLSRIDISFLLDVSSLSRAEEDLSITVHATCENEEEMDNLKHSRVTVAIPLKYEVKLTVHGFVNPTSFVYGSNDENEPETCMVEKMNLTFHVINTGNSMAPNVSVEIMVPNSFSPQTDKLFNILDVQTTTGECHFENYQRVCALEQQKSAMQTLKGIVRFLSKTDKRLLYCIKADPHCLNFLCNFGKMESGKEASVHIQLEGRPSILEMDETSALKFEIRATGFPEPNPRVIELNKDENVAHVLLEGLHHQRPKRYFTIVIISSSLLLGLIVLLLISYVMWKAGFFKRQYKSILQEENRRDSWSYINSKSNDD
T1 sequence (P05556 21-798): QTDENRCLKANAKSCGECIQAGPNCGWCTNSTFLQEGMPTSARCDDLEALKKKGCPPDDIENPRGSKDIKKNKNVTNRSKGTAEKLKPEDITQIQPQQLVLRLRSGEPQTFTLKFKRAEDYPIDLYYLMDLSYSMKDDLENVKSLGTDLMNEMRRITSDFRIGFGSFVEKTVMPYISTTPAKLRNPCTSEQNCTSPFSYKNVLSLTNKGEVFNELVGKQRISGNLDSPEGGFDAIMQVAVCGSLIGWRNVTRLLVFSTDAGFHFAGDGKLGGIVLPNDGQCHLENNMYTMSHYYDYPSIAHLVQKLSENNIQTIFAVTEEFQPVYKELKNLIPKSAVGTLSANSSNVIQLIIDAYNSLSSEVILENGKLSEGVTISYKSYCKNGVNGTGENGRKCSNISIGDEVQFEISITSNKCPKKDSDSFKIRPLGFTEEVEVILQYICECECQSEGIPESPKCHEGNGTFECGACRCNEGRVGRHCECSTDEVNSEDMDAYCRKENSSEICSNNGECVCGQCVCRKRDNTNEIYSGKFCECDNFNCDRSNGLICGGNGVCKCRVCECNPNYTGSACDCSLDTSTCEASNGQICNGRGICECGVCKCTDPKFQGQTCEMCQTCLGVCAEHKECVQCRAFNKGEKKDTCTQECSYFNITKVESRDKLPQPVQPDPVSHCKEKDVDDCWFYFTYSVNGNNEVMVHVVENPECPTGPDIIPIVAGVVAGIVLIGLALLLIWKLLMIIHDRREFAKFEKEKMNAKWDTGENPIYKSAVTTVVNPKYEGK
In short: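 BCECF-AM-labelled Jurkat cells were mixed with compound, generally 100, 20, 5 and 1.25 μM, and added to HUVEC monolayers (passage ≤6) pre-stimulated 4 hr at 37° C with 0.1 ng/ml IL-1. After 5 min on ice and 20 min at 37° C, washed wells were read by fluorescence as % adhesion relative to no compound.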

[2] = target: T2, α4β1 integrin (Jurkat cell adhesion to immobilized CS-1 derived peptide CLHPGEILDVPST) (Homo sapiens, UniProt P05556+P13612); experiment: Jurkat-CS-1 assay; type: cell-based; conditions: Jurkat cells on CS-1 peptide coated plates; read-out: JK/CS-1 (Jurkat CS-1 Assay IC50 value range)
T2 construct: 100 μl of Jurkat cells (2.5×10^6 cells/ml) in DMEM plus BSA; host or cells: Jurkat T-cell line
T2 sequence (P13612 34-1032): as the sequence (P13612 34-1032) above
T2 sequence (P05556 21-798): as the sequence (P05556 21-798) above
In short: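 CS-1 peptide was SPDP-crosslinked onto HSA-coated plates and blocked with BSA. Jurkat cells (2.5×10^6 cells/ml) in DMEM/BSA were mixed with compound, generally at 100, 20, 5 and 1.25 μM, and allowed to adhere for 1 hr at 37° C. Bound cells were fixed, stained with toluidine blue and quantified by OD590.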

| SMILES | IC50 [1] [µM] | IC50 [2] [µM] |
| --- | --- | --- |
| CS(=O)(=O)N1CSC[C@@H]1C(=O)N[C@@H](Cc1ccc(OCc2c(Cl)cccc2Cl)cc1)C(=O)O [Example 51, O-[(2,6-Dichlorophenyl)methyl]-N-[[(4S)-3-(methylsulfonyl)-4-thiazolidinyl]carbonyl]-L-tyrosine] | 0.25 to 1 | 0.05 to 0.75 |
| CCN(CC)C(=O)N1CSC[C@@H]1C(=O)N[C@@H](Cc1ccc(NC(=O)c2c(Cl)cccc2Cl)cc1)C(=O)O [Example 53, 4-[(2,6-Dichlorobenzoyl)amino]-N-[[(4S)-3-[(diethylamino)carbonyl]-4-thiazolidinyl]carbonyl]-L-phenylalanine] | ≤ 0.25 | ≤ 0.05 |
| CN(CCc1ccccn1)C(=O)N1CSC[C@@H]1C(=O)N[C@@H](Cc1ccc(NC(=O)c2c(Cl)cccc2Cl)cc1)C(=O)O [Example 55, 4-[(2,6-Dichlorobenzoyl)amino]-N-[[(4S)-3-[[methyl[2-(2-pyridinyl)ethyl]amino]carbonyl]-4-thiazolidinyl]carbonyl]-L-phenylalanine] | ≤ 0.25 | ≤ 0.05 |
| O=C(Nc1ccc(C[C@H](NC(=O)[C@H]2CSCN2C(=O)N(CCO)CCO)C(=O)O)cc1)c1c(Cl)cccc1Cl [Example 58, N-[[(4S)-3-[[bis(2-Hydroxyethyl)amino]carbonyl]thiazoldinyl]carbonyl]-4-[(2,6-dichlorobenzoyl)amino]-L-phenylalanine] | ≤ 0.25 | ≤ 0.05 |
| COC(=O)[C@H](Cc1ccc(OCc2c(Cl)cccc2Cl)cc1)NC(=O)[C@H]1CSCN1C(C)=O [Example 65, N-[[(4S)-3-Acetyl-4-thiazolidinyl]carbonyl]-O-[(2,6-dichlorophenyl)methyl]-L-tyrosine Methyl Ester] | ≥ 1 | 0.05 to 0.75 |
| CC(=O)N1CSC[C@@H]1C(=O)N[C@@H](Cc1ccc(OCc2c(Cl)cccc2Cl)cc1)C(=O)O [Example 66, N-[[(4S)-3-Acetyl-4-thiazolidinyl]carbonyl]-O-[(2,6-dichlorophenyl)methyl]-L-tyrosine] | ≤ 0.25 | 0.05 to 0.75 |
| COC(=O)[C@H](Cc1ccc(NC(=O)c2c(Cl)cccc2Cl)cc1)NC(=O)[C@H]1CSC(C)(C)N1C(C)=O [Example 83, N-[[(4S)-3-Acetyl-2,2-dimethyl-4-thiazolidinyl]carbonyl]-4-[(2,6-dichlorobenzoyl)amino]-L-phenylalanine Methyl Ester] | ≥ 1 | 0.05 to 0.75 |
| O=C(NO)[C@H](Cc1ccc(OCc2c(Cl)cccc2Cl)cc1)NC(=O)[C@H]1CSCN1C(=O)OCCN1CCOCC1 [Example 91] | ≥ 1 | ≥ 0.75 |
| CCOC(=O)N1CSC[C@@H]1C(=O)N[C@@H](Cc1ccc(OCc2c(Cl)cccc2Cl)cc1)C(=O)NO [Example 92] | ≥ 1 | ≥ 0.75 |
| O=C(NO)[C@H](Cc1ccc(OCc2c(Cl)cccc2Cl)cc1)NC(=O)[C@H]1CSCN1C(=O)OCCN1CCCCC1 [Example 93] | ≥ 1 | ≥ 0.75 |
| O=C(Nc1ccc(C[C@H](NC(=O)[C@@H]2CSCCN2C(=O)CCc2nnn[nH]2)C(=O)O)cc1)c1c(Cl)cccc1Cl [Example 103, 4-[(2,6-Dichlorobenzoyl)amino]-N-[[(3R)-4-[1-oxo-3-(1H-tetrazol-5-yl)propyl]-3-thiomorpholinyl]-carbonyl]-L-phenylalanine] | 0.25 to 1 | ≤ 0.05 |

Second part, the compound after the results:

| IC50 [1] [µM] | IC50 [2] [µM] | SMILES |
| --- | --- | --- |
| ≤ 0.25 | 0.05 to 0.75 | CC(C)(C)NC(=O)N1CSC[C@@H]1C(=O)N[C@@H](Cc1ccc(NC(=O)c2c(Cl)cccc2Cl)cc1)C(=O)O [Example 52, 4-[(2,6-Dichlorobenzoyl)amino]-N-[[(4S)-3-[[(1,1-dimethylethyl)amino]carbonyl]-4-thiazolidinyl]carbonyl]-L-phenylalanine] |
| 0.25 to 1 | 0.05 to 0.75 | COC(=O)[C@H](Cc1ccc(NC(=O)c2c(Cl)cccc2Cl)cc1)NC(=O)[C@H]1CSCN1C(C)=O [Example 61, N-[[(4S)-3-Acetyl-4-thiazolidinyl]carbonyl]-4-[(2,6-dichlorobenzoyl)amino]-L-phenylalanine Methyl Ester] |
| ≤ 0.25 | ≤ 0.05 | CC(=O)N1CSC[C@@H]1C(=O)N[C@@H](Cc1ccc(NC(=O)c2c(Cl)cccc2Cl)cc1)C(=O)O [Example 62, N-[[(4S)-3-Acetyl-4-thiazolidinyl]carbonyl]-4-[(2,6-dichlorobenzoyl)amino]-L-phenylalanine] |
| ≥ 1 | ≥ 0.75 | COC(=O)[C@H](Cc1ccc(NC(=O)c2c(Cl)cccc2Cl)cc1)NC(=O)[C@@H]1CSCN1C(C)=O [Example 69, N-[[(4R)-3-Acetyl-4-thiazolidinyl]carbonyl]-4-[(2,6-dichlorobenzoyl)amino]-L-phenylalanine Methyl Ester] |
| 0.25 to 1 | ≤ 0.05 | CC(=O)N1CSC[C@H]1C(=O)N[C@@H](Cc1ccc(NC(=O)c2c(Cl)cccc2Cl)cc1)C(=O)O [Example 70, N-[[(4R)-3-Acetyl-4-thiazolidinyl]carbonyl]-4[(2,6-dichlorobenzoyl)amino]-L-phenylalanine] |
| ≥ 1 | ≥ 0.75 | O=C(Nc1ccc(C[C@H](NC(=O)[C@@H]2CSCN2)C(=O)O)cc1)c1c(Cl)cccc1Cl [Example 71, 4-[(2,6-Dichlorobenzoyl)amino]-N-[[(4R)-4-thiazolidinyl]carbonyl]-L-phenylalanine Monohydrochloride Salt] |
| 0.25 to 1 | 0.05 to 0.75 | CC1(C)N[C@H](C(=O)N[C@@H](Cc2ccc(NC(=O)c3c(Cl)cccc3Cl)cc2)C(=O)O)CS1 [Example 74, 4-[(2,6-Dichlorobenzoyl)amino]-N-[[(4R)-2,2-dimethyl-4-thiazolidinyl]carbonyl]-L-phenylalanine] |
| ≤ 0.25 | ≤ 0.05 | CC(=O)N1[C@@H](C(=O)N[C@@H](Cc2ccc(NC(=O)c3c(Cl)cccc3Cl)cc2)C(=O)O)CSC1(C)C [Example 84, N-[[(4S)-3-Acetyl-2,2-dimethyl-4-thiazolidinyl]carbonyl]-4-[(2,6-dichlorobenzoyl)amino]-L-phenylalanine] |
| ≥ 1 | ≥ 0.75 | COC(=O)[C@H](Cc1ccc(NC(=O)c2c(Cl)cccc2Cl)cc1)NC(=O)[C@@H]1N(C(C)=O)C(C)(C)SC1(C)C [Example 87, N-[[(4S)-3-Acetyl-2,2,5,5-tetramethyl-4-thiazolidinyl]carbonyl]-4-[(2,6-dichlorobenzoyl)amino]-L-phenylalanine Methyl Ester] |
| ≥ 1 | ≥ 0.75 | COC(=O)[C@H](Cc1ccc(NC(=O)c2c(Cl)cccc2Cl)cc1)NC(=O)[C@@H]1CSCCN1C(=O)OC(C)(C)C [Example 96] |
| ≥ 1 | ≥ 0.75 | COC(=O)[C@H](Cc1ccc(NC(=O)c2c(Cl)cccc2Cl)cc1)NC(=O)[C@@H]1CSCCN1 [Example 97] |
| 0.25 to 1 | 0.05 to 0.75 | O=C(Nc1ccc(C[C@H](NC(=O)[C@@H]2CSCCN2)C(=O)O)cc1)c1c(Cl)cccc1Cl [Example 101, 4-[(2,6-Dichlorobenzoyl)amino]-N-[[(3R)-3-thiomorpholinyl]carbonyl]-L-phenylalanine Monohydrochloride] |
| ≥ 1 | ≥ 0.75 | COC(=O)[C@H](Cc1ccc(NC(=O)c2c(Cl)cccc2Cl)cc1)NC(=O)[C@@H]1CSCCN1C(=O)CCc1nnn[nH]1 [Example 102, 4-[(2,6-Dichlorobenzoyl)amino]-N-[[(3R)-4-[1-oxo-3-(1H-tetrazol-5-yl)propyl]-3-thiomorpholinyl]carbonyl]-L-phenylalanine Methyl Ester] |
